{"source": "ChEMBL document CHEMBL1150574", "about": "“3-Acetoxyspathulenol, a new aromadendrane-type natural product from the soft Coral Parerythropodium fulvum” (J Nat Prod, 2001)", "key": {"[1]": {"biological_target": "Tyrosine-protein kinase Lck (Homo sapiens) (UniProt P06239)", "sequence (P06239 2-509 limits assumed)": "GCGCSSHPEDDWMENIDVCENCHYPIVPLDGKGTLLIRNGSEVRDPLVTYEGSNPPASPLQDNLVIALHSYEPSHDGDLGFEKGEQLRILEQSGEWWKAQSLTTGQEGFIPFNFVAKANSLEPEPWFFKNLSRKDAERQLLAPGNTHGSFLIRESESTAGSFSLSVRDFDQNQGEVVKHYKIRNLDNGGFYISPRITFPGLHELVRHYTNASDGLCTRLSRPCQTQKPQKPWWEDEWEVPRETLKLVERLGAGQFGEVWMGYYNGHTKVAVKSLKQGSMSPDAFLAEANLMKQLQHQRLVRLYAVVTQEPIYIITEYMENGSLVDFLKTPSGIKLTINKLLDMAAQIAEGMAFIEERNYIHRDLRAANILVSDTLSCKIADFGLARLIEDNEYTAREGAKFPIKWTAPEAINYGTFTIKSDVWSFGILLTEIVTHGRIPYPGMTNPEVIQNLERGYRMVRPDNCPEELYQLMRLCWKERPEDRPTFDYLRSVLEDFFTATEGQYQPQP", "test": "Inhibition of p56 LCK"}, "Fusarium oxysporum": {"tested_on": "Fusarium oxysporum", "test": "Antimicrobial activity against Fusarium oxysporum", "assay_type": "functional, organism-based"}, "Caenorhabditis elegans": {"tested_on": "Caenorhabditis elegans", "test": "Nematicide against Caenorhabditis elegans", "assay_type": "functional, organism-based"}, "[Chlorella] fusca": {"tested_on": "[Chlorella] fusca", "test": "Antimicrobial activity against Chlorella fusca", "assay_type": "functional, organism-based", "settings": "Scenedesmus fuscus"}, "Artemia": {"tested_on": "Artemia", "test": "Toxicity against brine shrimp", "assay_type": "organism-based", "settings": "in vivo"}, "Priestia megaterium": {"tested_on": "Priestia megaterium", "test": "Antimicrobial activity against Bacillus megaterium", "assay_type": "functional, organism-based"}, "Mycotypha microspora": {"tested_on": "Mycotypha microspora", "test": "Antimicrobial activity against Mycotypha microspora", "assay_type": "functional, organism-based"}, "[2]": {"tested_on": "Aspergillus pseudoglaucus", "test": "Antimicrobial activity against Eurotium repens", "assay_type": "functional, organism-based"}, "[3]": {"tested_on": "Human immunodeficiency virus", "test": "Inhibition of HIV reverse transcriptase"}, "Escherichia coli": {"tested_on": "Escherichia coli", "test": "Antimicrobial activity against Escherichia coli", "assay_type": "functional, organism-based"}, "Microbotryum violaceum": {"tested_on": "Microbotryum violaceum", "test": "Antimicrobial activity against Microbotryum violaceum", "assay_type": "functional, organism-based"}}, "note": "Activity calls are given as the source filed them. The rule behind the calls is not given here.", "data": [{"smiles": "C=C1CC[C@@H]2[C@H]([C@H]3[C@H]1C[C@@H](OC(C)=O)[C@@]3(C)O)C2(C)C", "values": [{"measurement": "Activity", "setting": "[1]", "value": "inactive"}, {"measurement": "Activity", "setting": "Fusarium oxysporum", "value": "inactive"}, {"measurement": "Activity", "setting": "Caenorhabditis elegans", "value": "inactive"}, {"measurement": "Activity", "setting": "[Chlorella] fusca", "value": "inactive"}, {"measurement": "Activity", "setting": "Artemia", "value": "Non-toxic"}, {"measurement": "Activity", "setting": "Priestia megaterium", "value": "inactive"}, {"measurement": "Activity", "setting": "Mycotypha microspora", "value": "inactive"}, {"measurement": "Activity", "setting": "[2]", "value": "inactive"}, {"measurement": "Activity", "setting": "[3]", "value": "inactive"}, {"measurement": "Activity", "setting": "Escherichia coli", "value": "inactive"}, {"measurement": "Activity", "setting": "Microbotryum violaceum", "value": "inactive"}]}]}
